Assay results from US10064889B2, “Mercapto-modified biocompatible macromolecule derivatives with low degree of mercapto-modification and the cross-linked materials and uses thereof” (Bioregen Biomedical (Changzhou) Co., Ltd., priority 2010, dated 2018).

Test: Drug release from drug-containing disulfide-bond cross-linked hyaluronic acid hydrogel into phosphate buffer solution
Type: physicochemical
Conditions: 37° C., 100 rpm; for Cumulative release percentage of the drug: hydrogel 10 mg/ml hyaluronic acid, degree of mercapto-modification 3.97%
Description: In the preparation process of the disulfide-bond cross-linked hyaluronic acid hydrogel of Example 6 (having a concentration of hyaluronic acid of 10 mg/ml and a degree of mercapto-modification of 3.97%), 0.1-10 mg cortical hormones (e.g. Beclomethasone, Beclomethasone dipropionate, Budesonide, Dexamethasone, Prednisolone, and Prednisone) were added respectively to make the cortical hormones uniformly dispersed in the prepared cross-linked hydrogel.
10 ml phosphate buffer solution was added to 0.2 ml of the above drug-containing cross-linked hydrogel placed into a 15 ml plastic centrifugal tube. Then centrifugal tube was placed in a shaker (37° C., 100 rpm), and the ultraviolet absorption of the drugs in the supernatant was measured at regular intervals. The measurement wavelengths were as follows: Beclomethasone 246 nm, Beclomethasone dipropionate 240 nm, Budesonide 248 nm, Dexamethasone 242 nm, Prednisolone 248 nm, and Prednisone 244 nm.

Compound | Release behaviour from the hydrogel (in words) | Cumulative release percentage of the drug (7 days) [%] | Cumulative release percentage of the drug (14 days) [%] | Cumulative release percentage of the drug (21 days) [%]
CCC(=O)OCC(=O)[C@@]1(OC(=O)CC)[C@@H](C)C[C@H]2[C@@H]3CCC4=CC(=O)C=C[C@]4(C)[C@@]3(Cl)[C@@H](O)C[C@@]21C [Beclomethasone dipropionate] | release was rarely detected | <1 | <1 | <1
C[C@H]1C[C@H]2[C@@H]3CCC4=CC(=O)C=C[C@]4(C)[C@@]3(Cl)[C@@H](O)C[C@]2(C)[C@@]1(O)C(=O)CO [Beclomethasone] |  | 68 | 87 | 94
C[C@]12C=CC(=O)C=C1CC[C@@H]1[C@@H]2[C@@H](O)C[C@@]2(C)[C@H]1CC[C@]2(O)C(=O)CO [Prednisolone] | released basically completely in 7 days | 95 | 100 | 100
C[C@]12C=CC(=O)C=C1CC[C@@H]1[C@@H]2C(=O)C[C@@]2(C)[C@H]1CC[C@]2(O)C(=O)CO [Prednisone] |  | 86 | 99 | 100
